The subject of assay [1] is isolated human erythrocytes. Nature of the assay: cells. The following applies: Homo sapiens, Erythrocyte, 1 h, read-out: Hemolysis EC50. It counts as cell-based. The procedure: Hemolysis assay: Cytotoxicity was also evaluated in a hemolysis assay using isolated human erythrocytes. Pooled whole human blood was centrifuged to separate the red blood cells (RBC). The isolated RBCs were rinsed and diluted in Tris-buffered saline (TBS buffer, pH 7.4) to obtain a 0.22% RBC stock suspension. Serial two-fold dilutions of test agent were assayed over a concentration range of 1000 to 0.48 μg/ml with shaking for 1 hour at 37° C. At the conclusion of the incubation time, samples were centrifuged and 30 μl of the supernatant was added to 100 μl H2O. OD405 measurements were read for hemoglobin concentration. The bee venom peptide melittin was used as a positive control. EC50 values were determined using a four parameter logistic equation: Y=Bottom+(Top-Bottom)/(1+10̂((LogEC50-X)*HillSlope)).

Assay [2] has as its system Unfractionated heparin. Nature of the assay: aPTT clotting assay, UFH 0.4 U/mL in plasma (Example 10). It is filed as biochemical. As to the method:
aPTT clotting Assay: Unfractionated heparin was mixed with plasma at a final concentration of 0.4 U/mL (or concentration which increases aPTT time to between 120 and 300 seconds). […] The ACL Elite Hemostasis analyzer (Beckman Coulter™) was used to add aPTT reagent (HemosIL SynthASil) to supplemented plasma. Clotting was initiated by addition of CaCl2 and time to clot was recorded.

Assay [3] concerns UFH. Nature of the assay: FXa amidolytic assay (Example 10), UFH. The settings on record: read-out: Heparin FXa uM EC50.
Protocol: (§1) Two μl of test agent are added (range between 0.01 and 23 ug/ml) and incubated for 5 minutes at 23° C. Bovine Factor Xa was added to a final concentration of 0.636 nkat/mL and incubated for a further 10 minutes at 23° C.
The subject of assay [4] is enoxaparin. The assay is described as follows: FXa amidolytic assay (Example 10), enoxaparin. The settings on record: read-out: Enox FXa EC50.
Protocol: as §1
Assay [5] concerns tinzaparin. Nature of the assay: FXa amidolytic assay (Example 10), tinzaparin. The following applies: read-out: Tinzap FXa EC50.
Protocol: as §1
In assay [6] the test system is fondaparinux. Nature of the assay: FXa amidolytic assay (Example 10), fondaparinux. The following applies: read-out: Fondap FXa EC50.
Protocol: as §1
The mark [7] stands for this setting: unfractionated heparin 0.4 U/mL in plasma, aPTT clotting.
The mark [8] stands for this setting: UFH 0.03 units/mL, human antithrombin, bovine Factor Xa.
Setting [9] is: enoxaparin 0.1 ug/ml, human antithrombin, bovine Factor Xa.
The mark [10] stands for this setting: tinzaparin 0.1 ug/ml, human antithrombin, bovine Factor Xa.
Setting [11] is: fondaparinux 0.02 μg/mL, human antithrombin, bovine Factor Xa.

Our source for the EC50 values is patent US20110178104A1, “Anti-Heparin Compounds” (POLYMEDIX INC., priority 2010, published 2011).

≈ marks a conversion by molar mass, not a printed value. Like-named read-outs stand apart in the source and are kept apart here. Starred links: 1 amine or outer side, 2 acyl side, 3 side chain; linkers in the order of their positions; H or OH if unused. Non-standard residues stand in square brackets, D forms with d. Residues, ends and D or L forms follow the SMILES beside them. *: point of attachment. NH(3-CONH2-4-OMe-phenyl) = COc1ccc(N*)cc1C(N)=O; 3Abz(6-OMe) = COc1ccc(N[*:1])cc1C(=O)[*:2]; X1 = O=C(O)COc1ccc(N[*:1])cc1C(=O)[*:2] Where only a bound is given, the exact number is not on record here.

Turning to `COc1ccc(NC(=O)[C@@H](CCCNC(N)=O)NC(=O)c2cc(NC(=O)[C@@H](CCCNC(N)=O)NC(=O)c3cc(NC(=O)[C@@H](CCCNC(=N)N)NC(=O)c4cc(NC(C)=O)ccc4OC)ccc3OC)ccc2OCC(=O)O)cc1C(=O)N[C@H](Cc1c[nH]c2ccccc12)C(N)=O` [Compound 333], the EC50 in assay [1] (human RBC, 1 hour at 37° C.) is 1000 µg/mL (≈ 737 µM); in assay [2] (setting [7]), over 10000 nM; in assay [3] (setting [8]) it was over 5 µM; in assay [4] (setting [9]), over 5000 nM; in assay [5] (setting [10]) it was over 5000 nM; in assay [6] (setting [11]) it was over 5000 nM.

On to `COc1ccc(NC(=O)[C@H](CCCCN)NC(=O)c2cc(NC(=O)[C@H](CCCCN)NC(=O)c3cc(NC(=O)[C@H](CCCCN)NC(=O)c4cc(NC(=O)[C@H](CCCCN)NC(=O)[C@@H](N)Cc5c[nH]c6ccccc56)ccc4OC)ccc3OC)ccc2OC)cc1C(N)=O` [Compound 351] (H-WK[3Abz(6-OMe)]K[3Abz(6-OMe)]K[3Abz(6-OMe)]K-{NH(3-CONH2-4-OMe-phenyl)}), for which the EC50 in assay [1] (human RBC, 1 hour at 37° C.) was over 1000 µg/mL; in assay [2] (setting [7]), 1930 nM; in assay [3] (setting [8]), 0.194 µM; in assay [4] (setting [9]), 214 nM; in assay [5] (setting [10]) it was 114 nM; in assay [6] (setting [11]), 1110 nM.

Regarding `COc1ccc(NC(=O)[C@H](CCCCN)NC(=O)c2cc(NC(=O)[C@H](CCCCN)NC(=O)c3cc(NC(=O)[C@H](CCCCN)NC(=O)c4cc(NC(=O)[C@H](CCCCN)NC(=O)[C@@H](N)Cc5ccccc5)ccc4OC)ccc3OC)ccc2OC)cc1C(N)=O` [Compound 357] (H-FK[3Abz(6-OMe)]K[3Abz(6-OMe)]K[3Abz(6-OMe)]K-{NH(3-CONH2-4-OMe-phenyl)}), the EC50 in assay [1] (human RBC, 1 hour at 37° C.) was over 1000 µg/mL; in assay [2] (setting [7]) it was 1420 nM; in assay [3] (setting [8]), 0.187 µM; in assay [4] (setting [9]) it was 248 nM; in assay [5] (setting [10]), 118 nM; in assay [6] (setting [11]), 2220 nM.

Consider `COc1ccc(NC(=O)[C@H](CCCCN)NC(=O)c2cc(NC(=O)[C@H](CCCCN)NC(=O)c3cc(NC(=O)[C@H](CCCCN)NC(=O)c4cc(NC(=O)[C@H](CCCCN)NC(=O)[C@@H](N)Cc5ccccc5)ccc4OC)ccc3OC)ccc2OCC(=O)O)cc1C(N)=O` [Compound 358] (H-FK[3Abz(6-OMe)]K[3Abz(6-OMe)]K[X1]K-{NH(3-CONH2-4-OMe-phenyl)}), for which the EC50 in assay [1] (human RBC, 1 hour at 37° C.) was over 1000 µg/mL; in assay [2] (setting [7]), 1930 nM; in assay [3] (setting [8]), 0.314 µM; in assay [4] (setting [9]), 324 nM; in assay [5] (setting [10]), 184 nM; in assay [6] (setting [11]) it was 1600 nM.

As to `COc1ccc(NC(=O)[C@H](CCCNC(=N)N)NC(=O)c2cc(NC(=O)[C@H](CCCNC(=N)N)NC(=O)c3cc(NC(=O)[C@H](CCCNC(=N)N)NC(=O)c4cc(NC(C)=O)ccc4OC)ccc3OC)ccc2OC)cc1C(=O)N[C@@H](Cc1c[nH]c2ccccc12)C(=O)O` [Compound 310], the EC50 in assay [1] (human RBC, 1 hour at 37° C.) was about 1000 µg/mL (≈ 763 µM); in assay [2] (setting [7]) it was over 10000 nM; in assay [3] (setting [8]) it was 0.242 µM; in assay [4] (setting [9]), 119 nM; in assay [5] (setting [10]), 141 nM; in assay [6] (setting [11]) it was 98 nM.

For the molecule `COc1cc(OC)c(C(=O)NCCNC(=O)c2cc(C(=O)NCCN)c(OC)cc2OC)cc1C(=O)O` [Compound 387], the EC50 in assay [2] (setting [7]) is over 10000 nM; in assay [3] (setting [8]) it was over 20 µM; in assay [4] (setting [9]) it was over 5000 nM; in assay [5] (setting [10]), over 5000 nM; in assay [6] (setting [11]), over 10000 nM.

As to `COc1ccc(NC(=O)[C@@H](CCCNC(N)=O)NC(=O)c2cc(NC(=O)[C@@H](CCCNC(=N)N)NC(=O)c3cc(NC(=O)[C@@H](CCCNC(=N)N)NC(=O)c4cc(NC(C)=O)ccc4OC)ccc3OC)ccc2OCC(=O)O)cc1C(=O)N[C@H](Cc1c[nH]c2ccccc12)C(N)=O` [Compound 332], the EC50 in assay [1] (human RBC, 1 hour at 37° C.) is 1000 µg/mL (≈ 738 µM); in assay [2] (setting [7]), over 10000 nM; in assay [3] (setting [8]) it was over 5 µM; in assay [4] (setting [9]) it was over 5000 nM; in assay [5] (setting [10]), over 5000 nM; in assay [6] (setting [11]), over 5000 nM.

For `COc1ccc(NC(=O)[C@H](CCCCN)NC(=O)c2cc(NC(=O)[C@H](CCCCN)NC(=O)c3cc(NC(=O)[C@H](CCCCN)NC(=O)c4cc(NC(=O)[C@H](CCCCN)NC(=O)Cc5ccccc5)ccc4OC)ccc3OC)ccc2OCC(=O)O)cc1C(N)=O` [Compound 356], the EC50 in assay [1] was over 1000 µg/mL; in assay [2] (setting [7]) it was 1890 nM; in assay [3] (setting [8]), 0.204 µM; in assay [4] (setting [9]) it was 127 nM; in assay [5] (setting [10]), 100 nM; in assay [6] (setting [11]), 512 nM.

As for `NCCCC[C@H](NC(=O)c1cccc(NC(=O)[C@H](CCCCN)NC(=O)c2cccc(NC(=O)[C@H](CCCCN)NC(=O)c3cccc(NC(=O)[C@@H](N)CCCCN)c3)c2)c1)C(=O)Nc1cccc(C(N)=O)c1` [Compound 368], the EC50 in assay [2] (setting [7]) is 9250 nM; in assay [3] (setting [8]) it was 3.69 µM; in assay [4] (setting [9]), 11000 nM; in assay [5] (setting [10]), 3390 nM; in assay [6] (setting [11]), over 10000 nM.

Turning to `COc1ccc(NC(=O)[C@@H](CCCNC(N)=O)NC(=O)c2cc(NC(=O)[C@@H](CCCNC(N)=O)NC(=O)c3cc(NC(=O)[C@@H](CCCNC(=N)N)NC(=O)c4cc(NC(=O)[C@H](N)CCCNC(N)=O)ccc4OC)ccc3OC)ccc2OC)cc1C(N)=O` [Compound 372], the EC50 was 2970 nM in assay [2] (setting [7]); over 10 µM in assay [3] (setting [8]); 225 nM in assay [4] (setting [9]); 150 nM in assay [5] (setting [10]); 544 nM in assay [6] (setting [11]).

Regarding `COc1cc(OC)c(C(=O)N2CCC(NC(=O)c3cc(C(=O)NC4CCN(C(=O)c5cc(C(=O)NCCN)c(OC)cc5OC)CC4)c(OC)cc3OC)CC2)cc1C(=O)NCCN` [Compound 384], the EC50 in assay [2] (setting [7]) is over 10000 nM; in assay [3] (setting [8]), over 20 µM; in assay [4] (setting [9]), over 5000 nM; in assay [5] (setting [10]), over 5000 nM; in assay [6] (setting [11]), over 10000 nM.

Take `COc1ccc(NC(=O)[C@@H](CCCNC(=N)N)NC(=O)c2cc(NC(=O)[C@@H](CCCNC(N)=O)NC(=O)c3cc(NC(=O)[C@@H](CCCNC(N)=O)NC(=O)c4cc(NC(=O)[C@H](N)CCCNC(=N)N)ccc4OC)ccc3OC)ccc2OC)cc1C(N)=O` [Compound 376]: the EC50 was found to be 1890 nM in assay [2] (setting [7]); 0.416 µM in assay [3] (setting [8]); 191 nM in assay [4] (setting [9]); 114 nM in assay [5] (setting [10]); 1670 nM in assay [6] (setting [11]).

`COc1ccc(NC(=O)[C@@H](CCCNC(N)=O)NC(=O)c2cc(NC(=O)[C@@H](CCCNC(=N)N)NC(=O)c3cc(NC(=O)[C@@H](CCCNC(=N)N)NC(=O)c4cc(NC(=O)[C@H](N)CCCNC(N)=O)ccc4OC)ccc3OC)ccc2OC)cc1C(N)=O` [Compound 377]: the EC50 in assay [2] came out at 2090 nM; in assay [3] it was 0.66 µM; in assay [4] it was 149 nM; in assay [5], 92 nM; in assay [6] it was 1440 nM.

As to `COc1cc(OC)c(C(=O)NC2CCN(C(=O)c3cc(C(=O)NCCN)c(OC)cc3OC)CC2)cc1C(=O)O` [Compound 385], the EC50 in assay [2] (setting [7]) was over 10000 nM; in assay [3] (setting [8]) it was over 20 µM; in assay [4] (setting [9]) it was over 5000 nM; in assay [5] (setting [10]), over 5000 nM; in assay [6] (setting [11]), over 10000 nM.
